We go through four compounds from patent US11000033B2, “Ketone or oxime compound, and herbicide” (NISSAN CHEMICAL CORPORATION, priority 2014, dated 2021).

Assay type in all cases: in vivo
The subject of series [1] is Echinochloa oryzacola Vasing. The series is described as follows: Test Example 1: herbicidal activity, application before weed generation in submerged conditions (symbol A). As to conditions: application herbicide amount 320 g/ha. In short, it runs like this:
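Scores run 0 to 5 by herbicidal ratio, with 5 meaning 90% or more and 0 meaning 5% or lower, read 3 weeks after treatment. Compound was applied as a diluted emulsion to the water surface of submerged alluvial-soil pots on the day weed seeds were sown.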

For series [2], the system named is Echinochloa crus-galli var. crus-galli. In words: Test Example 4: herbicidal effect by soil treatment (symbol H). Put shortly:
(§1)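 Seeds were sown in sterilized diluvial soil, covered with about 1.5 cm of soil, and the soil surface was sprayed with a water-diluted emulsion of the compound at a predetermined rate. Plants grew in a greenhouse at 25° C. to 30° C.; effects were scored visually 3 weeks after application.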

In series [3] the test system is Stellaria media. The series is described as follows: Test Example 4: herbicidal effect by soil treatment (symbol P). Put shortly:
as §1

Series [4] deals with Chenopodium album. The series is described as follows: Test Example 4: herbicidal effect by soil treatment (symbol O). Put shortly:
as §1

For series [5], the system named is Echinochloa crus-galli var. crus-galli. In words: Test Example 5: herbicidal effect by foliage application, plastic box (symbol H). As to conditions: 320 g/ha, 3 weeks after application. Put shortly:
(§2)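 After sowing into sterilized diluvial soil and growing two weeks under glass at 25° C. to 30° C., seedlings receive a uniform foliar spray of diluted emulsion. Damage is judged visually three weeks on.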

In series [6] the test system is Lolium multiflorum Lam. The series is described as follows: Test Example 5: herbicidal effect by foliage application, plastic box (symbol K). The settings on record: 320 g/ha, 3 weeks after application. In short, it runs like this:
as §2

Series [7] has as its system Monochoria vaginalis. In words: Test Example 2: herbicidal activity, application during weed generation in submerged conditions (symbol C). The settings on record: Table 23; application herbicide amount 320 g/ha; grade 0-5 by criteria of Test Example 1. In short, it runs like this: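 Seeds sown in flooded alluvial soil (4 cm water) were grown in a 25-30° C greenhouse. At the one- to two-leaf stage, diluted emulsion of compound was applied to the water surface at a predetermined rate. Effect was scored 3 weeks later.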

Series [8] relates to Apera spica-venti. In words: Test Example 5: herbicidal effect by foliage application, plastic box (symbol L). The settings on record: 320 g/ha, 3 weeks after application. Put shortly:
as §2

Series [9] relates to Lolium multiflorum Lam. The series is described as follows: Test Example 4: herbicidal effect by soil treatment (symbol K). In short, it runs like this: as §1
Series [10] has as its system transplanted rice plant. In words: Test Example 1: effect on crop, application before weed generation in submerged conditions (symbol a). As to conditions: application herbicide amount 320 g/ha. Put shortly: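 Alluvial soil pots flooded to 4 cm water, sown with Echinochloa oryzacola, Scirpus juncoides and Monochoria vaginalis, then transplanted with 2.5 leaf stage rice seedlings; pre-emergence application. Greenhouse 25° C. to 30° C.; scored 0–5 by herbicidal ratio 3 weeks after application.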

Series [11] relates to soybean. The series is described as follows: Test Example 4: effect on crop by soil treatment (symbol d). As to conditions: for d: soybean, effect on crop grade: application herbicide amount 320 g/ha. Put shortly:
(§3)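 Seeds were sown in spots on sterilized diluvial soil in a plastic box and covered with about 1.5 cm of soil. Plants were then grown in a greenhouse at 25° C. to 30° C.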

Series [12] relates to Avena fatua. In words: Test Example 4: herbicidal effect by soil treatment (symbol I). Put shortly:
as §1

In series [13] the test system is Veronica persica. In words: Test Example 4: herbicidal effect by soil treatment (symbol R). The settings on record: application herbicide amount 320 g/ha. Put shortly: as §1
For series [14], the system named is rice. The series is described as follows: Test Example 4: effect on crop by soil treatment (symbol b). As to conditions: for b: directly sowed rice plant, effect on crop grade: application herbicide amount 320 g/ha. In short, it runs like this:
as §3

The subject of series [15] is Digitaria ciliaris. The series is described as follows: Test Example 4: herbicidal effect by soil treatment (symbol F). Put shortly: as §1
Series [16] deals with rapeseed. In words: Test Example 4: effect on crop by soil treatment (symbol g). The settings on record: for g: rapeseed, effect on crop grade: application herbicide amount 320 g/ha. In short, it runs like this: as §3
For series [17], the system named is Stellaria media. In words: Test Example 5: herbicidal effect by foliage application, plastic box (symbol P). As to conditions: 320 g/ha, 3 weeks after application. In short, it runs like this: as §2
Series [18] deals with Apera spica-venti. The series is described as follows: Test Example 4: herbicidal effect by soil treatment (symbol L). Put shortly: as §1
The mark [19] stands for this setting: application herbicide amount 320 g/ha.

For the compound `Cc1cc(C)c(C2=C(O)CC(CC(=O)c3ccc(F)cc3)C2=O)c(C)c1` (centres unmarked) [2-032], the “Herbicidal effect grade, A: Echinochloa oryzacola Vasing.” value in series [1] was 4 (Herbicidal ratio of 70% or higher and lower than 90%). Further, the “H: Echinochloa crus-galli var. crus-galli, herbicidal effect grade” value in series [2] (setting [19]) is 4 (Herbicidal ratio of 70% or higher and lower than 90%); in [5], 5 (Herbicidal ratio of 90% or more (almost completely withered)). Further, the “P: Stellaria media, herbicidal effect grade” value (“P: Stellaria media” for short) in series [3] (setting [19]) and in series [17] was 0 (Herbicidal ratio of 5% or lower (almost no effect)) in each case. For the same compound, the “O: Chenopodium album, herbicidal effect grade” value (shortened to “O: Chenopodium album”) in series [4] (setting [19]) was 0 (Herbicidal ratio of 5% or lower (almost no effect)). Moreover, the “K: Lolium multiflorum Lam., herbicidal effect grade” value in [6] and in series [9] (setting [19]) was 5 (Herbicidal ratio of 90% or more (almost completely withered)) throughout. Also, in series [7], the “Herbicidal effect grade, C: Monochoria vaginalis” value (from here on “Herbicidal effect grade, C”) was 0 (Herbicidal ratio of 5% or lower (almost no effect)). The “L: Apera spica-venti, herbicidal effect grade” value (“L: Apera spica-venti” below) in [8] is recorded as 5 (Herbicidal ratio of 90% or more (almost completely withered)). Further, the “Effect grade on crop, a: transplanted rice plant” value in series [10] was 5 (Herbicidal ratio of 90% or more (almost completely withered)). In addition, the “d: soybean, effect on crop grade” value in series [11] is 0 (Herbicidal ratio of 5% or lower (almost no effect)). Also, the “I: Avena fatua, herbicidal effect grade” value in series [12] (setting [19]) is 0 (Herbicidal ratio of 5% or lower (almost no effect)). Further, the “R: Veronica persica, herbicidal effect grade” value in series [13] is 0 (Herbicidal ratio of 5% or lower (almost no effect)). Also, in series [14], the “b: directly sowed rice plant, effect on crop grade” value is listed as 5 (Herbicidal ratio of 90% or more (almost completely withered)). Besides, the “F: Digitaria ciliaris, herbicidal effect grade” value (“F: Digitaria ciliaris” below) in [15] (setting [19]) was 4 (Herbicidal ratio of 70% or higher and lower than 90%). For the same compound, the “g: rapeseed, effect on crop grade” value in series [16] was 1 (Herbicidal ratio of 5% or higher and lower than 20%).
In the case of `Cc1cc(C)c(C2=C(O)CC(CC(=O)C3CC3)C2=O)c(C)c1` (centres unmarked) [2-017], in series [1], the “Herbicidal effect grade, A: Echinochloa oryzacola Vasing.” value was 5 (Herbicidal ratio of 90% or more (almost completely withered)). Further, the “H: Echinochloa crus-galli var. crus-galli, herbicidal effect grade” value in series [2] (setting [19]) and in series [5] was 5 (Herbicidal ratio of 90% or more (almost completely withered)) throughout. Moreover, the “P: Stellaria media” value in [3] (setting [19]) and in series [17] was 0 (Herbicidal ratio of 5% or lower (almost no effect)) in each case. Moreover, the “O: Chenopodium album” value in series [4] (setting [19]) is reported as 0 (Herbicidal ratio of 5% or lower (almost no effect)). Also, the “K: Lolium multiflorum Lam., herbicidal effect grade” value in series [6] and in series [9] (setting [19]) was 5 (Herbicidal ratio of 90% or more (almost completely withered)) throughout. The “Herbicidal effect grade, C” value in [7] was 4 (Herbicidal ratio of 70% or higher and lower than 90%). Further, the “L: Apera spica-venti” value in series [8] is 3 (Herbicidal ratio of 40% or higher and lower than 70%); in [18] (setting [19]), 3 (Herbicidal ratio of 40% or higher and lower than 70%). Also, the “Effect grade on crop, a: transplanted rice plant” value in series [10] is recorded as 5 (Herbicidal ratio of 90% or more (almost completely withered)). Also, the “d: soybean, effect on crop grade” value in series [11] is given as 0 (Herbicidal ratio of 5% or lower (almost no effect)). Further, in series [12] (setting [19]), the “I: Avena fatua, herbicidal effect grade” value was 0 (Herbicidal ratio of 5% or lower (almost no effect)). Moreover, the “b: directly sowed rice plant, effect on crop grade” value in series [14] is listed as 5 (Herbicidal ratio of 90% or more (almost completely withered)). Moreover, in series [15] (setting [19]), the “F: Digitaria ciliaris” value is 5 (Herbicidal ratio of 90% or more (almost completely withered)). Besides, the “g: rapeseed, effect on crop grade” value in series [16] is reported as 5 (Herbicidal ratio of 90% or more (almost completely withered)).
`CON=C(C)CC1CC(O)=C(c2c(C)cc(Br)cc2C)C1=O` (centres unmarked) [6-003]: the “Herbicidal effect grade, A: Echinochloa oryzacola Vasing.” value in [1] was 5 (Herbicidal ratio of 90% or more (almost completely withered)). For the same compound, the “H: Echinochloa crus-galli var. crus-galli, herbicidal effect grade” value in series [2] (setting [19]) and in [5] was 5 (Herbicidal ratio of 90% or more (almost completely withered)) in each case. Further, the “P: Stellaria media” value was 0 (Herbicidal ratio of 5% or lower (almost no effect)) in [3] (setting [19]); 2 (Herbicidal ratio of 20% or higher and lower than 40%) in series [17]. Besides, the “O: Chenopodium album” value in series [4] (setting [19]) is recorded as 0 (Herbicidal ratio of 5% or lower (almost no effect)). For the same compound, the “K: Lolium multiflorum Lam., herbicidal effect grade” value in series [6] and in [9] (setting [19]) was 5 (Herbicidal ratio of 90% or more (almost completely withered)) throughout. Besides, in series [7], the “Herbicidal effect grade, C” value is 3 (Herbicidal ratio of 40% or higher and lower than 70%). Also, the “L: Apera spica-venti” value in series [8] and in series [18] (setting [19]) was 5 (Herbicidal ratio of 90% or more (almost completely withered)) throughout. Besides, in [10], the “Effect grade on crop, a: transplanted rice plant” value was 5 (Herbicidal ratio of 90% or more (almost completely withered)). Further, the “d: soybean, effect on crop grade” value in [11] is recorded as 0 (Herbicidal ratio of 5% or lower (almost no effect)). The “I: Avena fatua, herbicidal effect grade” value in [12] (setting [19]) is 3 (Herbicidal ratio of 40% or higher and lower than 70%). The “b: directly sowed rice plant, effect on crop grade” value in series [14] was 5 (Herbicidal ratio of 90% or more (almost completely withered)). Further, in [15] (setting [19]), the “F: Digitaria ciliaris” value was 5 (Herbicidal ratio of 90% or more (almost completely withered)). For the same compound, the “g: rapeseed, effect on crop grade” value in series [16] was 4 (Herbicidal ratio of 70% or higher and lower than 90%).
Take `COC(=O)C(C(C)=O)C1CC(O)=C(c2c(C)cc(C)cc2C)C1=O` (centres unmarked) [2-003]: in series [1], the “Herbicidal effect grade, A: Echinochloa oryzacola Vasing.” value is reported as 0 (Herbicidal ratio of 5% or lower (almost no effect)). In addition, the “H: Echinochloa crus-galli var. crus-galli, herbicidal effect grade” value was 0 (Herbicidal ratio of 5% or lower (almost no effect)) in series [2] (320 g/ha) and 5 (Herbicidal ratio of 90% or more (almost completely withered)) in [5]. For the same compound, the “P: Stellaria media” value in series [3] (320 g/ha) and in [17] was 0 (Herbicidal ratio of 5% or lower (almost no effect)) in each case. Moreover, the “O: Chenopodium album” value in series [4] (320 g/ha) is 0 (Herbicidal ratio of 5% or lower (almost no effect)). The “K: Lolium multiflorum Lam., herbicidal effect grade” value in series [6] and in [9] (320 g/ha) was 5 (Herbicidal ratio of 90% or more (almost completely withered)) each time. Besides, the “Herbicidal effect grade, C” value in [7] is given as 0 (Herbicidal ratio of 5% or lower (almost no effect)). In addition, the “L: Apera spica-venti” value in series [8] is 4 (Herbicidal ratio of 70% or higher and lower than 90%); in [18] (320 g/ha) it was 5 (Herbicidal ratio of 90% or more (almost completely withered)). In addition, the “Effect grade on crop, a: transplanted rice plant” value in series [10] is reported as 0 (Herbicidal ratio of 5% or lower (almost no effect)). In series [11] (320 g/ha), the “d: soybean, effect grade on crop” value was 0 (Herbicidal ratio of 5% or lower (almost no effect)). Moreover, in series [12] (320 g/ha), the “I: Avena fatua, herbicidal effect grade” value was 0 (Herbicidal ratio of 5% or lower (almost no effect)). In series [14] (320 g/ha), the “b: directly sowed rice plant, effect grade on crop” value was 2 (Herbicidal ratio of 20% or higher and lower than 40%). Moreover, the “F: Digitaria ciliaris” value in series [15] (320 g/ha) is 4 (Herbicidal ratio of 70% or higher and lower than 90%). The “g: rapeseed, effect grade on crop” value in [16] (320 g/ha) is on record as 0 (Herbicidal ratio of 5% or lower (almost no effect)).
